# Measured values taken from US10639380B2, “Flavivirus-binding, entry-obstructing, protease-resistant peptide (RI57)” (priority 2016, dated 2020).
# Like-named read-outs stand apart in the source and are kept apart here. Square brackets hold non-standard residues; d marks the D form. Peptide text beside a SMILES is read from it.
# Key:
# [1] = 1:2 dilution of NHS, 37° C., 24 h
# Method: Lane 1 contains peptide alone/time=0; lane 2, peptide at 37° C./time=24 h; lane 3, peptide in a 1:2 dilution of NHS/time=0; lane 4, peptide in a 1:2 dilution of NHS @ 37° C./time=24 h; and lane 5, a 1:2 dilution of NHS with no peptide at 37° C./time=24 h.
# trypsin = conditions: peptide incubated in trypsin at 37° C. before adding STI
# Method: The image documents 10-20% gradient gels run electrophoretically (e-gel), labeled with Imperial Protein Stain, and photographed. An e-gel was performed for each peptide, stained with Imperial stain, and photographed. The arrow markers show both the identity of the peptide run and its final location after migration. For each peptide assessment, lanes 1 contain peptide alone; lanes 2, peptide plus soybean trypsin inhibitor (STI); and lanes 3, peptide incubated in trypsin at 37° C. before adding STI.
# in vitro = conditions: rhesus monkey, LLC-MK2 cells (confluent monolayers)
# Method: Possible direct cytotoxicity caused by peptide exposure to proliferating LLC-MK2 monolayers was measured using the TACS™ MTT cell proliferation assay (R&D Systems, Inc., Minneapolis, Minn.) according to the manufacturer's instructions. The MTT assay detects and measures mitochondrial reductase activity observable in viable cells. […] A Tecan GeniosPro plate reader (Tecan US, Durham, N.C.) was used to measure absorbance at 560 nm.
# Error bars show ±standard deviations (±sd) of the means with an asterisk indicating instances of statistically-significant differences from control according to Dunnett's post hoc test (p<0.05).
# Method for DENV1: (§1) Twenty-four hours prior to infection, LLC-MK2 target cells were seeded at a density of 1.0×10^5 cells per well of an E-well plate. Approximately 200 FFU of virus were incubated with or without peptides in serum-free DMEM for 1 h at 20° C. Virus/peptide or virus/control mixtures were allowed to infect confluent target cell monolayers for 1 h at 37° C., rocking every 15 min, after which time the medium was aspirated and monolayers overlaid with fresh DMEM plus v/v 10% FBS containing v/v 0.85% Sea-Plaque Agarose (Cambrex Bio Science, Rockland, Me.). To allow proper setting, monolayers with agar overlays were incubated 20 min at 4° C. Next, infected cells were incubated at 37° C. with 5% CO2 for three days (DENV1, -3, and -4) or five days (DENV2). Then, infected cultures were fixed with 10% formalin overnight at 4° C., permeabilized with v/v 70% ethanol for 20 min, and rinsed with phosphate-buffered saline, pH 7.4 (PBS) prior to immunostaining. Viral foci were detected and enumerated using supernatant from mouse anti-DENV hybridoma E60 (obtained from the Department of Pathology & Immunology, Washington University, St. Louis, Mo.) followed by horseradish peroxidase-conjugated goat anti-mouse immunoglobulin (Pierce, Rockford, Ill.) and developed using AEC chromogen substrate (Dako, Carpinteria, Calif.). Results have been expressed as an average of two independent trials (at least) with three replicates each.
# Method for DENV2: as §1
# Method for DENV3: as §1
# Method for DENV4: as §1
structure (smiles),measurement,setting,value
CSCC[C@@H](NC(=O)[C@H](NC(=O)[C@@H](Cc1c[nH]c2ccccc12)NC(=O)[C@@H](CCCNC(=N)N)NC(=O)[C@@H](Cc1c[nH]cn1)NC(=O)[C@@H](Cc1c[nH]c2ccccc12)NC(=O)[C@@H](Cc1ccccc1)NC(=O)[C@@H](Cc1c[nH]cn1)NC(=O)[C@@H](CCCNC(=N)N)NC(=O)[C@@H](CC(C)C)NC(=O)[C@@H](CCCNC(=N)N)NC(=O)[C@@H](CC(C)C)NC(=O)[C@H]1CCCN1C(=O)[C@@H](Cc1ccc(O)cc1)NC(=O)[C@@H](CC(N)=O)NC(=O)[C@H]1CCCN1C(=O)CNC(=O)[C@@H](CCCCN)NC(=O)[C@@H](CC(N)=O)NC(=O)[C@@H](CCCCN)NC(=O)[C@@H](CCC(N)=O)NC(=O)[C@@H](CC(N)=O)NC(=O)[C@@H](CCC(N)=O)NC(=O)[C@@H](CCC(N)=O)NC(=O)[C@@H](Cc1c[nH]c2ccccc12)NC(=O)[C@H]1CCCN1)C(C)C)C(=O)N[C@H](Cc1c[nH]c2ccccc12)C(=O)N[C@H](CCCNC(=N)N)C(=O)O [RI57] (H-[dP][dW][dQ][dQ][dN][dQ][dK][dN][dK]G[dP][dN][dY][dP][dL][dR][dL][dR][dH][dF][dW][dH][dR][dW][dV][dM][dW][dR]-OH; N-terminus and C-terminus assumed),degradation in normal human serum (e-gel),[1],remains completely intact
same,trypsin cleavage (e-gel),trypsin,resistant to trypsin cleavage
same,% Inhibition DENV4,DENV4; 0.1 uM peptide,18.9%
same,% Inhibition DENV4,DENV4; 0.5 uM peptide,−0.7%
same,% Inhibition DENV4,DENV4; 1.0 uM peptide,−11.8%
same,% Inhibition DENV4,DENV4; 5.0 uM peptide,−41.8%
same,% Inhibition DENV4,DENV4; 10.0 uM peptide,55.5%
same,% Inhibition DENV4,DENV4; 20.0 uM peptide,94.4%
same,"viability at 24 h, 0.1 µM",in vitro,95.9%
same,"viability at 24 h, 0.5 µM",in vitro,96.5%
same,"viability at 24 h, 1 µM",in vitro,95%
same,"viability at 24 h, 5 µM",in vitro,95.9%
same,"viability at 24 h, 10 µM",in vitro,95.3%
same,"viability at 24 h, 15 µM",in vitro,100%
same,"viability at 24 h, 20 µM",in vitro,101%
same,"viability at 24 h, 25 µM",in vitro,101%
same,"viability at 24 h, 30 µM",in vitro,104%
same,"viability at 24 h, 35 µM",in vitro,94.3%
same,"viability at 24 h, 40 µM",in vitro,92%
same,% Inhibition DENV2,DENV2; 0.1 uM peptide,6.2%
same,% Inhibition DENV2,DENV2; 0.5 uM peptide,−1.7%
same,% Inhibition DENV2,DENV2; 1.0 uM peptide,−5.9%
same,% Inhibition DENV2,DENV2; 5.0 uM peptide,4.3%
same,% Inhibition DENV2,DENV2; 10.0 uM peptide,69.8%
same,% Inhibition DENV2,DENV2; 20.0 uM peptide,97.8%
same,IC50,"DENV2; DENV2, sigmoidal curve-fitting to dose-response curve",7.4 µM
same,% Inhibition DENV1,DENV1; 0.1 uM peptide,2.4%
same,% Inhibition DENV1,DENV1; 0.5 uM peptide,16.2%
same,% Inhibition DENV1,DENV1; 1.0 uM peptide,−43.6%
same,% Inhibition DENV1,DENV1; 5.0 uM peptide,63.8%
same,% Inhibition DENV1,DENV1; 10.0 uM peptide,97.3%
same,% Inhibition DENV1,DENV1; 20.0 uM peptide,100.0%
same,IC50,"DENV1; DENV1, sigmoidal curve-fitting to dose-response curve",4.6 µM
same,% Inhibition DENV3,DENV3; 0.1 uM peptide,15.1%
same,% Inhibition DENV3,DENV3; 0.5 uM peptide,3.3%
same,% Inhibition DENV3,DENV3; 1.0 uM peptide,−73.1%
same,% Inhibition DENV3,DENV3; 5.0 uM peptide,−9.7%
same,% Inhibition DENV3,DENV3; 10.0 uM peptide,63.3%
same,% Inhibition DENV3,DENV3; 20.0 uM peptide,90.1%
same,IC50,"DENV3; DENV3, sigmoidal curve-fitting to dose-response curve",5.9 µM
